Data as given in publication PMC5426640, “A novel multifunctional peptide oligomer of bacitracin with possible bioindustrial and therapeutic applications from a Korean food-source Bacillus strain” (PLoS ONE, 2017).
Where a SMILES comes first, the peptide text is derived from it. Bridges are numbered along the chain shown (N, C = ends). [ ]: non-standard residue; d: D form. The star is where a group is joined. Ileψ(thiazoline)Cys = CC[C@H](C)[C@H](N)C1=N[C@H](C(=O)*)CS1; dOrn = NCCC[C@@H](N)C(=O)O

What was measured:
JNK = assay: Western blot of LPS-induced MAPK phosphorylation in RAW 264.7 cells; assay type: cell-based, mouse; details: 10–100 μg/mL, LPS 1 μg/mL
Experimental: (§1) Macrophages were incubated with or without LPS in the presence or absence of the AMPs. Cells were harvested, washed twice with ice-cold Tris-HCl-buffered saline (TBS), and resuspended in lysis buffer [100 mM Tris-HCl, 5 mM EDTA, 50 mM NaCl, 50 mM β- glycerophosphate, 50 mM NaF (sodium fluoride), 0.5% NP-40, 1% sodium deoxycholate, 0.1 mM sodium orthovanadate, and 1% phenylmethylsulfonyl fluoride (PMSF)]. The cytosolic fraction was obtained from the supernatant after […] centrifugation at 4°C for 20 min. Samples (20 μg in terms of protein) were separated by sodium dodecyl sulfate-polyacrylamide gel electrophoresis (SDS-PAGE) in a 10% gel and transferred to polyvinylidene difluoride (PVDF) membranes. The membranes were blocked with 5% nonfat milk in TBS with Tween 20 (0.1%) for 2 h and then incubated with primary antibodies specific for ERK, phospho-ERK, JNK, phospho-JNK, p38 MAPK, phospho-p38 MAPK (all them from Cell Signaling Technology), NF-κB, IκB, and phospho-IκB (1:1000; Santa Cruz Biotechnology). […] After three washes with TBS–Tween 20, the membrane was hybridized with an HRP-conjugated secondary antibody for 1 h. The membranes were washed three times for 10 min and developed with the ECL Western Blotting Detection System (GE Healthcare, Incheon, Republic of Korea,). The immunoreactive proteins were detected by means of a LAS-3000 Luminescent image analyzer (Fuji Photo Film Co., Ltd., Tokyo, Japan).

ERK = assay: as above; assay type: cell-based, mouse; details: 10–100 μg/mL, LPS 1 μg/mL
Experimental: as §1

p38 MAPK = assay: as above; assay type: cell-based, mouse; details: 10–100 μg/mL, LPS 1 μg/mL
Experimental: as §1

[1] = system: NO production in LPS-stimulated RAW 264.7 cells; assay: LPS-induced NO production, Griess reaction; assay type: cell-based, mouse; details: 10, 50, or 100 μg/mL; LPS 1 μg/mL, 24 h; Griess reagent
Experimental: NO levels in the culture supernatants were measured by the Griess reaction. Cells (10^6 cells/mL) were seeded in 6-well plates and pretreated with the indicated concentrations of AMP for 30 min before stimulation with 1 μg/mL LPS for 24 h. The sample supernatants were mixed with an equal volume of the Griess reagent (1% sulfanilamide in 5% phosphoric acid and 0.1% naphthyl ethylene diamine dihydrochloride), and then incubated at room temperature for 10 min. The absorbance was measured at 550 nm on a microplate reader (Thermo Fisher Co.). The nitrite concentration was determined using a dilution of sodium nitrite as a standard.

[2] = system: Micrococcus luteus ATCC 9341; assay: pH stability, residual antimicrobial activity; assay type: physicochemical; details: 1 h at room temperature, residual antimicrobial activity vs indicator strain, n = 3
Experimental: (§2) After heat treatment (30–121°C, 10–60 min), the samples were tested for residual antimicrobial activity against indicator strain Micrococcus luteus ATCC 9341. Effects of pH on antimicrobial activity were estimated by varying the pH levels. Samples were diluted in the following buffers: citrate with Na2HPO4 (pH 3.0–7.0), Tris-HCl (pH 7.0–9.0), and NaHCO3 with NaOH (pH 10.0–11.0). After incubation for 1 h at room temperature, pH in the samples was adjusted to 7.0, and the samples were tested for antimicrobial activity against the indicator strain. The AMP was digested with various proteolytic enzymes at a final concentration of 1 mg/mL: […] (50 mM Tris-HCl, pH 7.5), protease K (50 mM Tris-HCl, pH 7.5), α-chymotrypsin (50 mM Tris-HCl, pH 7.5), or trypsin (50 mM Tris-HCl, pH 8.0). After 1-h incubation at room temperature, the enzymes were boiled for 2 min for inactivation.

IL-6 = assay: ELISA of cytokine production in LPS-stimulated RAW 264.7 cells; assay type: cell-based, mouse; details: 10–100 μg/mL before LPS 1 μg/mL for 24 h; ELISA of supernatant
Experimental: (§3) The concentration of nitrite in the supernatant was calculated using a sodium nitrite standard curve. The supernatant was analyzed for TNF-α, IL-1β, and IL-6 by ELISAs using commercial kits (BD Biosciences) according to the manufacturer’s instructions.

IL-1β = assay: as above; assay type: cell-based, mouse; details: 10–100 μg/mL before LPS 1 μg/mL for 24 h; ELISA of supernatant
Experimental: as §3

TNF-α = assay: as above; assay type: cell-based, mouse; details: 10–100 μg/mL before LPS 1 μg/mL for 24 h; ELISA of supernatant
Experimental: as §3

[3] = system: Micrococcus luteus ATCC 9341; assay: Thermostability, residual antimicrobial activity; assay type: physicochemical; details: residual antimicrobial activity vs Micrococcus luteus ATCC 9341, mean ± SD, n = 3
Experimental: as §2

iNOS mRNA = assay: RT-PCR of mRNA expression in LPS-stimulated RAW 264.7 cells; assay type: cell-based, mouse; details: 10, 50, or 100 μg/mL, LPS 2–12 h, GAPDH control
Experimental: (§4) Total RNA from the AMP-treated cells was prepared using the RNAiso Reagent (Takara) and was stored at −80°C until use. For the detection of iNOS, COX-2, TNF-α, IL-Iβ, and IL-6, total RNA was extracted after stimulation and treatment. The mRNA expression levels of iNOS, COX-2, TNF-α, IL-Iβ, and IL-6 in the treated cells were compared to the expression levels in control cells. One microgram of RNA was reverse-transcribed into cDNA and used as a template for PCR amplification. PCR was performed on a DNA Gene Cycler, under the following conditions: 40 cycles of denaturation at 94°C for 30 s, annealing at 58°C for 30 s, and primer extension at 72°C for 40 s. PCR products were analyzed on 1% agarose gels, and bands were visualized by ethidium bromide staining.

IL-1β mRNA = assay: as above; assay type: cell-based, mouse; details: 10, 50, or 100 μg/mL, LPS 2–12 h, GAPDH control
Experimental: as §4

IL-6 mRNA = assay: as above; assay type: cell-based, mouse; details: 10, 50, or 100 μg/mL, LPS 2–12 h, GAPDH control
Experimental: as §4

COX-2 mRNA = assay: as above; assay type: cell-based, mouse; details: 10, 50, or 100 μg/mL, LPS 2–12 h, GAPDH control
Experimental: as §4

TNF-α mRNA = assay: as above; assay type: cell-based, mouse; details: 10, 50, or 100 μg/mL, LPS 2–12 h, GAPDH control
Experimental: as §4

CC[C@H](C)[C@H](N)C1=N[C@H](C(=O)N[C@@H](CC(C)C)C(=O)N[C@H](CCC(=O)O)C(=O)N[C@H](C(=O)N[C@H]2CCCCNC(=O)[C@H](CC(N)=O)NC(=O)[C@@H](CC(=O)O)NC(=O)[C@H](Cc3c[nH]cn3)NC(=O)[C@@H](Cc3ccccc3)NC(=O)[C@H]([C@@H](C)CC)NC(=O)[C@@H](CCCN)NC2=O)[C@@H](C)CC)CS1 [CSP32] ({Ileψ(thiazoline)Cys}-L[dE]IK[dOrn]I[dF]H[dD]N; lactam 4-C; N-terminus assumed)
Effect on LPS-induced phosphorylation of JNK (JNK): Phosphorylation decreased in a dose-dependent manner | Effect on LPS-induced phosphorylation of ERK (ERK): Phosphorylation decreased in a dose-dependent manner | Effect on LPS-induced phosphorylation of p38 MAPK (p38 MAPK): Phosphorylation decreased in a dose-dependent manner | Effect on LPS-induced NO production [1]: attenuated the LPS-induced production of NO to a statistically significant extent | Residual activity (%) ([2]; pH 2, then adjusted to pH 7.0, mean ± SD, SD): 61.33±1.04% | Residual activity (%) ([2]; pH 3, citrate with Na2HPO4, then adjusted to pH 7.0, mean ± SD, SD): 63.00±1.04% | Residual activity (%) ([2]; pH 4, citrate with Na2HPO4, then adjusted to pH 7.0, mean ± SD, SD): 89.60±3.44% | Residual activity (%) ([2]; pH 6, citrate with Na2HPO4, then adjusted to pH 7.0, mean ± SD, SD): 100±0.50% | Residual activity (%) ([2]; pH 7): 100% | Residual activity (%) ([2]; pH 8, Tris-HCl, then adjusted to pH 7.0, mean ± SD, SD): 100±0.20% | Residual activity (%) ([2]; pH 9, Tris-HCl, then adjusted to pH 7.0, mean ± SD, SD): 100±1.15% | Residual activity (%) ([2]; pH 10, NaHCO3 with NaOH, then adjusted to pH 7.0, mean ± SD, SD): 98±3.38% | Residual activity (%) ([2]; pH 11, NaHCO3 with NaOH, then adjusted to pH 7.0, mean ± SD, SD): 91.33±0.06% | Residual activity (%) ([2]; pH 12, then adjusted to pH 7.0, mean ± SD, SD): 91.77±0.06% | Effect on LPS-induced IL-6 release (IL-6): significantly attenuated | Effect on LPS-induced IL-1β release (IL-1β): significantly attenuated | Effect on LPS-induced TNF-α release (TNF-α): significantly attenuated | Residual activity (%) ([3]; heat treatment 30°C, 10 min): 100% | Residual activity (%) ([3]; heat treatment 30°C, 30 min, SD): 100±0.28% | Residual activity (%) ([3]; heat treatment 30°C, 60 min, SD): 100±0.34% | Residual activity (%) ([3]; heat treatment 50°C, 10 min, SD): 100±0.94% | Residual activity (%) ([3]; heat treatment 50°C, 30 min, SD): 98.40±0.39% | Residual activity (%) ([3]; heat treatment 50°C, 60 min, SD): 98.07±0.36% | Residual activity (%) ([3]; heat treatment 70°C, 10 min, SD): 98.07±0.41% | Residual activity (%) ([3]; heat treatment 70°C, 30 min, SD): 98.00±0.41% | Residual activity (%) ([3]; heat treatment 70°C, 60 min, SD): 98.07±0.39% | Residual activity (%) ([3]; heat treatment 90°C, 10 min, SD): 97.73±1.04% | Residual activity (%) ([3]; heat treatment 121°C, 15 min, SD): 65.40±0.17% | Effect on LPS-induced iNOS mRNA expression (iNOS mRNA): significantly attenuated iNOS and COX-2 mRNA upregulation in a dose-dependent manner | Effect on LPS-induced IL-1β mRNA expression (IL-1β mRNA): dose-dependently attenuated the LPS-enhanced expression | Effect on LPS-induced IL-6 mRNA expression (IL-6 mRNA): dose-dependently attenuated the LPS-enhanced expression | Effect on LPS-induced COX-2 mRNA expression (COX-2 mRNA): significantly attenuated iNOS and COX-2 mRNA upregulation in a dose-dependent manner | Effect on LPS-induced TNF-α mRNA expression (TNF-α mRNA): dose-dependently attenuated the LPS-enhanced expression
